Measured values: publication PMC11944513, “Investigation on Human Carbonic Anhydrase IX and XII Inhibitory Activity and A549 Antiproliferative Activity of a New Class of Coumarinamides” (Pharmaceuticals, 2025)

Columns and labels:
h-CA I = h-CA I (Homo sapiens, UniProt P00915); test: stopped-flow CO2 hydrase assay, h-CA I
h-CA II = h-CA II (Homo sapiens, UniProt P00918); test: stopped-flow CO2 hydrase assay, h-CA II
h-CA IX = h-CA IX (Homo sapiens, UniProt Q16790); test: stopped-flow CO2 hydrase assay, h-CA IX
h-CA XII = h-CA XII (Homo sapiens, UniProt O43570); test: stopped-flow CO2 hydrase assay, h-CA XII
Chain of h-CA XII (O43570 25-354): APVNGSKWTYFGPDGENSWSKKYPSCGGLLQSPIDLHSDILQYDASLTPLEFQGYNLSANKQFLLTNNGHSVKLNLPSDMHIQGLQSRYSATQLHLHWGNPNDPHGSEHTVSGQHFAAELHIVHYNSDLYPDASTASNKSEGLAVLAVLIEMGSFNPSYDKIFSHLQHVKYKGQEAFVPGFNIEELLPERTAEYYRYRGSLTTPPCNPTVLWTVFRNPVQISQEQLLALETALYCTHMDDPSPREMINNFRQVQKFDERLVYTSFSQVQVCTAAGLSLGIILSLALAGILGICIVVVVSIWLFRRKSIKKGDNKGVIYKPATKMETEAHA

[1] = system: normal bronchial epithelial cells (BEAS-2B); test: cell viability (MTT assay), BEAS-2B; assay type: cell-based, human; conditions: Homo sapiens, BEAS-2B, 48 h exposure, nonlinear regression, predictive estimates
Procedure: Human bronchial epithelial (BEAS-2B; CRL-3588) and human lung carcinoma (A549; CCL-185) cell lines were obtained from ATCC®. BEAS and A549 cells were maintained in complete RPMI 1640 (Merck, Darmstadt, Germany) at 37 °C and 5% CO2. The medium was supplemented with 10% heat-inactivated fetal bovine serum (FBS), 1% penicillin/streptomycin and 1% sodium pyruvate.
Cells were seeded at different densities according to the different experimental techniques performed (MTT assay and cell cycle analysis) and left to adhere for 24 h. Next, the medium was removed, and cells were treated with tested compounds, dissolved in dimethyl sulfoxide (DMSO) to achieve concentrations ranging from 0 µM (untreated control = CTRL) to 150 µM. The final DMSO concentration was kept below 0.3%. Cell viability was evaluated at up to 72 h post-treatment. Images were acquired 48 h after treatments by means of a light phase-contrast microscope equipped with a camera (Leica). Images were acquired and analyzed by the Leica Application Suite LAS EZ version 3.4 (Leica, Wetzlar, Germany).
BEAS and A549 cells were seeded in 96-well culture-treated plates (Falcon®, Corning Incorporated, Brooklyn, NY, USA) at a density of 0.5 × 10^4 cells/well. Untreated cells were set as the experimental control, representing 100% of cell viability. Exposure times varied from 24 up to 72 h. At the established time points (24, 48 and 72 h), the exposure medium was replaced with fresh medium containing 0.5 mg/mL 3-(4,5-dimethylthiazol-2-yl)-2,5-diphenyltetrazolium bromide (MTT) (Merck, Darmstadt, Germany) and processed as previously reported. The optical density in each well was measured at a wavelength of 540 nm using a spectrophotometer (Thermo Fisher Scientific, Waltham, MA, USA). Each experiment was performed in triplicate per experimental conditions (n = 3).

Chain of h-CA I (P00915 whole entry): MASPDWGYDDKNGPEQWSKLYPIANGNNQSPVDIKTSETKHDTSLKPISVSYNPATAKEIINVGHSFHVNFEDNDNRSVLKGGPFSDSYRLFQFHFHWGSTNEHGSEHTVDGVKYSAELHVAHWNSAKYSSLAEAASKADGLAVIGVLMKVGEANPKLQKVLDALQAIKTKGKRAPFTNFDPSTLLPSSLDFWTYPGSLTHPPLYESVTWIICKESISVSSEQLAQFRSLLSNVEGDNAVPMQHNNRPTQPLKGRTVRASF

| SMILES | Ki (h-CA I) | Ki (h-CA II) | Ki (h-CA IX) | Ki (h-CA XII) | IC50 [1] |
| --- | --- | --- | --- | --- | --- |
| O=C(c1cc2ccc(O)cc2oc1=O)N1CCN(c2ccc([N+](=O)[O-])cc2)CC1 [Compound 42, 7-Hydroxy-3-(4-(4-Nitrophenyl)piperazine-1-Carbonyl)-2H-Chromen-2-One] | > 100 µM | > 100 µM | 30.1 µM | 62.8 µM |  |
| O=C(c1cc2ccc(O)cc2oc1=O)N1CCN(Cc2ccccc2)CC1 [Compound 31, 3-(4-Benzylpiperazine-1-Carbonyl)-7-Hydroxy-2H-Chromen-2-One] | > 100 µM | > 100 µM | 84.1 µM | 59.5 µM |  |
| O=C(NCc1ccccc1C(F)(F)F)c1cc2ccc(O)cc2oc1=O [Compound 15, 7-Hydroxy-2-Oxo-N-(2-(Trifluoromethyl)benzyl)-2H-Chromene-3-Carboxamide] | > 100 µM | > 100 µM | 50 µM | 31.5 µM |  |
| O=C(NCc1cccc([N+](=O)[O-])c1)c1cc2ccc(O)cc2oc1=O [Compound 12, 7-Hydroxy-N-(3-Nitrobenzyl)-2-Oxo-2H-Chromene-3-Carboxamide] | > 100 µM | > 100 µM | 64.7 µM | 55.2 µM |  |
| COc1ccc(CCNC(=O)c2cc3ccc(O)cc3oc2=O)cc1OC [Compound 27, N-(3,4-Dimethoxyphenethyl)-7-Hydroxy-2-Oxo-2H-Chromene-3-Carboxamide] | > 100 µM | > 100 µM | 84.7 µM | 50.8 µM |  |
| Cc1ccc(C)c(N2CCN(C(=O)c3cc4ccc(O)cc4oc3=O)CC2)c1 [Compound 37, 3-(4-(2,5-Dimethylphenyl)piperazine-1-Carbonyl)-7-Hydroxy-2H-Chromen-2-One] | > 100 µM | > 100 µM | 75.9 µM | 63.4 µM |  |
| O=C(NCc1cccc(C(F)(F)F)c1)c1cc2ccc(O)cc2oc1=O [Compound 16, 7-Hydroxy-2-Oxo-N-(3-(Trifluoromethyl)benzyl)-2H-Chromene-3-Carboxamide] | > 100 µM | > 100 µM | 77.1 µM | 64.4 µM |  |
| O=C(c1cc2ccc(O)cc2oc1=O)N1CCN(c2cccc([N+](=O)[O-])c2)CC1 [Compound 41, 7-Hydroxy-3-(4-(3-Nitrophenyl)piperazine-1-Carbonyl)-2H-Chromen-2-One] | > 100 µM | > 100 µM | 25.4 µM | 47.5 µM |  |
| Cc1cccc(N2CCN(C(=O)c3cc4ccc(O)cc4oc3=O)CC2)c1C [Compound 35, 3-(4-(2,3-Dimethylphenyl)piperazine-1-Carbonyl)-7-Hydroxy-2H-Chromen-2-One] | > 100 µM | > 100 µM | 82.2 µM | 41.4 µM |  |
| Cc1cccc(N2CCN(C(=O)c3cc4ccc(O)cc4oc3=O)CC2)c1 [Compound 33, 7-Hydroxy-3-(4-(m-tolyl)piperazine-1-Carbonyl)-2H-Chromen-2-One] | > 100 µM | > 100 µM | 89.3 µM | 40.5 µM |  |
| O=C(NCc1cccc(Cl)c1)c1cc2ccc(O)cc2oc1=O [Compound 20, N-(3-Chlorobenzyl)-7-Hydroxy-2-Oxo-2H-Chromene-3-Carboxamide] | > 100 µM | > 100 µM | 33.9 µM | 42.6 µM |  |
| Cc1ccc(N2CCN(C(=O)c3cc4ccc(O)cc4oc3=O)CC2)c(C)c1 [Compound 36, 3-(4-(2,4-Dimethylphenyl)piperazine-1-Carbonyl)-7-Hydroxy-2H-Chromen-2-One] | > 100 µM | > 100 µM | 78.1 µM | 69.7 µM |  |
| O=C(NCc1ccc(F)cc1)c1cc2ccc(O)cc2oc1=O [Compound 13, N-(4-Fluorobenzyl)-7-Hydroxy-2-Oxo-2H-Chromene-3-Carboxamide] | > 100 µM | > 100 µM | 86.9 µM | 70.5 µM |  |
| Cc1cc(C)cc(N2CCN(C(=O)c3cc4ccc(O)cc4oc3=O)CC2)c1 [Compound 39, 3-(4-(3,5-Dimethylphenyl)piperazine-1-Carbonyl)-7-Hydroxy-2H-Chromen-2-One] | > 100 µM | > 100 µM | 68.1 µM | 46.8 µM |  |
| COc1ccc(CCNC(=O)c2cc3ccc(O)cc3oc2=O)cc1 [Compound 26, 7-Hydroxy-N-(4-Methoxyphenethyl)-2-Oxo-2H-Chromene-3-Carboxamide] | > 100 µM | > 100 µM | 80.8 µM | 57.7 µM |  |
| O=C(NCc1c(Cl)cccc1Cl)c1cc2ccc(O)cc2oc1=O [Compound 24, N-(2,6-Dichlorobenzyl)-7-Hydroxy-2-Oxo-2H-Chromene-3-Carboxamide] | > 100 µM | > 100 µM | 85.6 µM | 75.1 µM |  |
| O=C(c1cc2ccc(O)cc2oc1=O)N1CCN(c2ccccc2[N+](=O)[O-])CC1 [Compound 40, 7-Hydroxy-3-(4-(2-Nitrophenyl)piperazine-1-Carbonyl)-2H-Chromen-2-One] | > 100 µM | > 100 µM | 85.2 µM | 63.8 µM |  |
| O=C(NCc1ccccc1)c1cc2ccc(O)cc2oc1=O [Compound 4, N-Benzyl-7-Hydroxy-2-Oxo-2H-Chromene-3-Carboxamide] | > 100 µM | > 100 µM | 42.2 µM | 7.5 µM | 344.9 ± 3.14 µM |
| O=C(NCc1cccc(F)c1)c1cc2ccc(O)cc2oc1=O [Compound 14, N-(3-Fluorobenzyl)-7-Hydroxy-2-Oxo-2H-Chromene-3-Carboxamide] | > 100 µM | > 100 µM | 73.2 µM | 57.6 µM |  |
| O=C(NCCc1ccc(F)cc1)c1cc2ccc(O)cc2oc1=O [Compound 28, N-(4-Fluorophenethyl)-7-Hydroxy-2-Oxo-2H-Chromene-3-Carboxamide] | > 100 µM | > 100 µM | 80.4 µM | 66.9 µM |  |
| O=C(NCc1ccc(Br)cc1)c1cc2ccc(O)cc2oc1=O [Compound 18, N-(4-Bromobenzyl)-7-Hydroxy-2-Oxo-2H-Chromene-3-Carboxamide] | > 100 µM | > 100 µM | 60.7 µM | 26.1 µM |  |
| COc1ccccc1CNC(=O)c1cc2ccc(O)cc2oc1=O [Compound 8, 7-Hydroxy-N-(2-Methoxybenzyl)-2-Oxo-2H-Chromene-3-Carboxamide] | > 100 µM | > 100 µM | 77.4 µM | 70.2 µM |  |
| COc1cccc(CNC(=O)c2cc3ccc(O)cc3oc2=O)c1 [Compound 10, 7-Hydroxy-N-(3-Methoxybenzyl)-2-Oxo-2H-Chromene-3-Carboxamide] | > 100 µM | > 100 µM | 63.1 µM | 73.1 µM |  |
| O=C(NCc1ccc(Cl)cc1)c1cc2ccc(O)cc2oc1=O [Compound 21, N-(4-Chlorobenzyl)-7-Hydroxy-2-Oxo-2H-Chromene-3-Carboxamide] | > 100 µM | > 100 µM | 80.7 µM | 39.7 µM |  |
| O=C(NCc1ccc([N+](=O)[O-])cc1)c1cc2ccc(O)cc2oc1=O [Compound 11, 7-Hydroxy-N-(4-Nitrobenzyl)-2-Oxo-2H-Chromene-3-Carboxamide] | > 100 µM | > 100 µM | 75.7 µM | 49.8 µM |  |
| Cc1ccc(N2CCN(C(=O)c3cc4ccc(O)cc4oc3=O)CC2)cc1 [Compound 34, 7-Hydroxy-3-(4-(p-tolyl)piperazine-1-Carbonyl)-2H-Chromen-2-One] | > 100 µM | > 100 µM | 83.2 µM | 56 µM |  |
| COc1cccc(N2CCN(C(=O)c3cc4ccc(O)cc4oc3=O)CC2)c1 [Compound 43, 7-Hydroxy-3-(4-(3-Methoxyphenyl)piperazine-1-Carbonyl)-2H-Chromen-2-One] | > 100 µM | > 100 µM | 40.4 µM | 79.9 µM |  |
| O=C(NCc1ccc(C(F)(F)F)cc1)c1cc2ccc(O)cc2oc1=O [Compound 17, 7-Hydroxy-2-Oxo-N-(4-(Trifluoromethyl)benzyl)-2H-Chromene-3-Carboxamide] | > 100 µM | > 100 µM | 83.7 µM | 54.1 µM |  |
